From US11634412B2, “3-phosphoglycerate dehydrogenase inhibitors and uses thereof” (Raze Therapeutics, Inc., priority 2016, dated 2023) come the findings set out here.

This assay deals with T1, Full length (FL) 3-Phosphoglycerate Dehydrogenase (PHGDH) (Homo sapiens, UniProt O43175).
T1 construct: Full length (FL) 3-Phosphoglycerate Dehydrogenase (PHGDH) Diaphorase coupled assay (500 uM NAD)
T1 sequence (O43175 1-533): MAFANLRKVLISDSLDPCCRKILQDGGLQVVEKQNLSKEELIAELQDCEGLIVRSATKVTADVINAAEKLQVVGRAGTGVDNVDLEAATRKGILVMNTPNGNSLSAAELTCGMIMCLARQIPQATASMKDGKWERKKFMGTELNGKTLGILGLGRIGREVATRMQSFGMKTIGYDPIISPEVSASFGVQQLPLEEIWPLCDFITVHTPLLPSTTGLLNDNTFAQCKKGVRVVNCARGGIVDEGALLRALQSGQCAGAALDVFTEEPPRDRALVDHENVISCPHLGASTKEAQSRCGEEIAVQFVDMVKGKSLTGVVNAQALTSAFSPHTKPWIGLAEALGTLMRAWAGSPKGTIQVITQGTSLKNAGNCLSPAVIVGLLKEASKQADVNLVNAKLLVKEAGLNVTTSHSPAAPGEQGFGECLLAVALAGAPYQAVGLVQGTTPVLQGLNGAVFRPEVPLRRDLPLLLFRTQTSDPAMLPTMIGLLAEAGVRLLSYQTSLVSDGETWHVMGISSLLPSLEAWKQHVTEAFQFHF
The assay is described as follows: Full length (FL) PHGDH Diaphorase coupled assay (500 uM NAD). Type of assay: biochemical. As to conditions: full-length PHGDH 5 nM, 30° C. 60 minutes, resorufin fluorescence. The protocol: Full length (FL) 3-Phosphoglycerate Dehydrogenase (PHGDH) Diaphorase coupled assay (500 uM NAD)
PHGDH activity was determined by detecting the NADH produced during the reaction. Diaphorase was used to catalyze the oxidation of NADH with the concomitant reduction of resazurin to the fluorescent product resorufin. Resorufin fluorescence quantitatively reflected the production of NADH by the PHGDH reaction. To drive the forward reaction, two enzymes in the serine synthesis pathway subsequent to PHGDH, Phosphoserine aminotransferase (PSAT1) and phosphoserine phosphatase (PSPH) were also added to the reaction.
Briefly, serial dilution of compounds were incubated in a volume of 20 μL in 384 well plates with the assay mixture containing 5 nM PHGDH, 500 nM PSAT1, 500 nM PSPH, 500 μM NAD^+, 80 uM 3-phosphoglycerate, 1 mM glutamate, 57 uM Resazurin and 0.2 mg/ml Diaphorase in assay buffer containing 50 mM Trisethanoloamine (TEA) pH8.0, 10 mM MgCl2, 0.01% Tween-20 and 0.05% Bovine Serum Albumin (BSA). The plate was then incubated at 30° C. for 60 minutes and resorufin fluorescence was measured at emission wavelength 598 nm following excitation at 525 nm. The positive control consisted of the complete reaction mixture with 4% DMSO and was set to 0% inhibition.

A word on the IC50: it is the midpoint of a concentration-inhibition curve. A low value points to inhibition by little substance. In the case of `COc1cc2c(cc(C(=O)NC3(c4ccc(C(C(=O)O)C5CC5)cc4)CCOC3)n2C)c(Cl)c1Cl` (racemic) [I-163 e163, (±)-2-Cyclopropyl-2-(4-(3-(4,5-dichloro-6-methoxy-1-methyl-1H-indole-2-carboxamido)tetrahydrofuran-3-yl)phenyl)acetic acid], the 50% inhibitory concentration (IC50) was 0.001 to 1 µM.
The result for `C[C@H](C(=O)O)c1ccc(C2(NC(=O)c3cc4c(Cl)c(Cl)ccc4n3C)COC2)cc1` (single isomer, unassigned) [I-35 or I-34 e160 peak 1] reads 0.001 to 1 µM; that for `COc1cc2c(cc(C(=O)NC3(c4ccc(CC(=O)O)cc4F)COC3)n2C)c(Cl)c1Cl` [I-86 e45], 0.001 to 1 µM.
With `COc1cc2c(cc(C(=O)NC3(c4ccc(C(=O)O)cc4F)COC3)n2C)c(Cl)c1F` [I-56 e78], the IC50 was in the range of 0.001 to 1 µM.
The compound `Cn1c(C(=O)NC2(c3ccc(C4(C(=O)O)CC4)cc3)CCOC2)cc2c(Cl)c(Cl)ccc21` (racemic) [I-59 e38] gave an IC50 of 0.001 to 1 µM.
The result for `COc1ccc2c(cc(C(=O)NC3(c4ccc(C(C)C(=O)O)cc4)COC3)n2C)c1Cl` (racemic) [I-67 e59] reads 0.001 to 1 µM; that for `Cn1c(C(=O)NC2(c3ccc(C(=O)O)cc3Cl)COC2)cc2c(Cl)c(Cl)ccc21` [I-85 e48], 0.001 to 1 µM.
For `CCCC(C(=O)O)c1ccc(C2(NC(=O)c3cc4c(Cl)c(Cl)ccc4n3C)CCOC2)cc1` (racemic) [I-18 e84], the IC50 fell in the range of 0.001 to 1 µM.
Compound `COc1cc2c(cc(C(=O)NC3(c4ccc(C(=O)O)cc4Cl)COC3)n2C)c(Cl)c1Cl` [I-66 e67] returned an IC50 of 0.001 to 1 µM.
Turning to `CCC(C(=O)O)c1ccc(C2(NC(=O)c3cc4c(Cl)c(OC)ccc4n3C)COC2)cc1` (racemic) [I-43 e126], the IC50 lay in the range of 0.001 to 1 µM.
Turning to `COc1ccc2c(cc(C(=O)NC3(c4ccc(C(C(=O)O)C(C)C)cc4)COC3)n2C)c1Cl` (racemic) [I-21 e127], the IC50 is 0.001 to 1 µM.
In turn, `COc1ccc2c(cc(C(=O)NC3(c4ccc(C(C)(C)C(=O)O)cc4F)CCOC3)n2C)c1Cl` (racemic) [I-39 e81] came in with a half-maximal inhibitory concentration (IC50) of 0.001 to 1 µM.
`COc1ccc2c(cc(C(=O)NC3(c4ccc(C(=O)NS(C)(=O)=O)cc4)COC3)n2C)c1Cl` [I-162 e165, 4-Chloro-5-methoxy-1-methyl-N-(3-(4-((methylsulfonyl)carbamoyl)-phenyl)oxetan-3-yl)-1H-indole-2-carboxamide] yielded an IC50 of 0.001 to 1 µM.
`Cn1c(C(=O)NC2(c3ccc(C(=O)O)cc3)CCOC2)cc2c(Cl)cccc21` (racemic) [I-117 e30] yielded an IC50 of 1 to 5 µM.
The compound `Cn1c(C(=O)NC2(c3ccc(C(=O)O)cc3)CCOC2)cc2c(Cl)c(Cl)c(OCC3CCCO3)cc21` (racemic) [I-94 e98] yielded an IC50 of 0.001 to 1 µM.
With `Cn1c(C(=O)NC2(c3ccc(C(=O)O)cc3)CCOC2)cc2c(Cl)c(F)ccc21` (racemic) [I-106 e31] the figure was 1 to 5 µM; with `Cn1c(C(=O)NC2(c3ccc(C(=O)O)c(C4CC4)c3)CCOC2)cc2c(Cl)c(Cl)ccc21` (racemic) [I-101 e157, (±)-2-cyclopropyl-4-[3-[(4,5-dichloro-1-methyl-indole-2-carbonyl)amino]-tetrahydrofuran-3-yl]benzoic acid], 1 to 5 µM.
For the compound `CCCC(C(=O)O)c1ccc(C2(NC(=O)c3cc4c(Cl)c(Cl)ccc4n3C)COC2)cc1` (racemic) [I-24 e114], the IC50 was in the range of 0.001 to 1 µM.
With `CCCC(C(=O)O)c1ccc(C2(NC(=O)c3cc4c(Cl)c(Cl)c(OC)cc4n3C)COC2)cc1` (racemic) [I-38 e115] the figure was 0.001 to 1 µM; with `COc1cc2c(cc(C(=O)NC3(c4ccc(C(C(=O)O)C5CCC5)cc4)COC3)n2C)c(Cl)c1Cl` (racemic) [I-7 e117], 0.001 to 1 µM.
With `CCC(=O)NS(=O)(=O)c1ccc(C2(NC(=O)c3cc4c(Cl)c(OC)ccc4n3C)COC2)cc1` [I-161 e164, 4-Chloro-5-methoxy-1-methyl-N-(3-(4-(N-propanoylsulfamoyl)phenyl)-oxetan-3-yl)-1H-indole-2-carboxamide] the figure was 0.001 to 1 µM; with `CCCC(C(=O)O)c1ccc(C2(NC(=O)c3cc4c(Cl)c(OC)ccc4n3C)COC2)cc1` (racemic) [I-31 e112], 0.001 to 1 µM; with `CC(C(=O)O)c1ccc(C2(NC(=O)c3cc4c(Cl)c(Cl)ccc4n3C)COC2)cc1` (racemic) [I-68 e58], 0.001 to 1 µM.
With `COc1cc(Cl)c2cc(C(=O)NC3(c4ccc(C(=O)O)cc4)CCOC3)n(C)c2c1` (racemic) [I-114 e34] the figure was 1 to 5 µM.
Regarding `Cc1ccc2c(cc(C(=O)NC3(c4ccc(CC(=O)O)cc4F)COC3)n2C)c1Cl` [I-63 e44], the IC50 lay in the range of 0.001 to 1 µM.
The result for `Cn1c(C(=O)NC2(c3ccc(C(=O)O)cc3)CCOC2)cc2c(Cl)c(Cl)c(OCC3CCOC3)cc21` (racemic) [I-92 e101] reads 0.001 to 1 µM; that for `COc1cc2c(cc(C(=O)NC3(c4ccc(C(C)C(=O)O)cc4F)CCOC3)n2C)c(Cl)c1Cl` (racemic) [I-55 e54], 0.001 to 1 µM; that for `COc1ccc2c(cc(C(=O)NC3(c4ccc(C(C)(C)C(=O)O)cc4)COC3)n2C)c1Cl` [I-27 e110], 0.001 to 1 µM.
With `COc1ccc2c(cc(C(=O)NC3(c4ccc(C(C(=O)O)C5CCC5)cc4)COC3)n2C)c1Cl` (racemic) [I-13 e111] the figure was 0.001 to 1 µM; with `Cn1c(C(=O)NC2(c3ccc(C(C(=O)O)C4CCCC4)cc3)COC2)cc2c(Cl)c(Cl)ccc21` (racemic) [I-25 e136, (±)-2-Cyclopentyl-2-[4-[3-[(4,5-dichloro-1-methyl-indole-2-carbonyl)amino]oxetan-3-yl]phenyl]acetic acid], 0.001 to 1 µM; with `Cn1c(C(=O)NC2(c3ccc(C4(C(=O)O)CC4)cc3)COC2)cc2c(Cl)c(Cl)ccc21` [I-28 e108], 0.001 to 1 µM.
`Cc1cc(C2(NC(=O)c3cc4c(Cl)c(Cl)ccc4n3C)CCOC2)ccc1C(=O)O` (racemic) [I-98 e155, (±)-4-[3-[(4,5-Dichloro-1-methyl-indole-2-carbonyl)amino]tetrahydro-furan-3-yl]-2-methyl-benzoic acid] gave an IC50 of 0.001 to 1 µM.
`Cn1c(C(=O)NC2(c3ccc(C(=O)O)cc3)CCOC2)cc2c(Cl)c(Cl)c(OCc3ncc[nH]3)cc21` (racemic) [I-81 e105]: the IC50 lay in the range of 0.001 to 1 µM.
The compound `Cn1c(C(=O)NC2(c3ccc(C(=O)O)cc3)CCN(CC(F)(F)F)C2)cc2c(Cl)c(Cl)ccc21` (racemic) [I-125 e19] had a half-inhibitory concentration (IC50) of 1 to 5 µM.
The compound `COc1ccc2c(cc(C(=O)NC3(c4ccc(C(C(=O)O)C5CCCC5)cc4)COC3)n2C)c1Cl` (racemic) [I-26 e130] displayed an IC50 of 0.001 to 1 µM.
The result for `CC(C(=O)O)c1ccc(C2(NC(=O)c3cc4c(Cl)c(Cl)ccc4n3C)COC2)c(Cl)c1` (stereo not drawn) [I-33 e62] reads 0.001 to 1 µM; that for `Cn1c(C(=O)NC2(c3ccc(C(C)(C)C(=O)O)cc3F)COC2)cc2c(Cl)c(Cl)ccc21` [I-37 e109], 0.001 to 1 µM.
The result for `COc1ccc2c(cc(C(=O)NC3(c4ccc(C(C(=O)O)C5CCNCC5)cc4)COC3)n2C)c1Cl` (racemic) [I-159 e121] reads 0.001 to 1 µM; that for `CCOc1cc2c(cc(C(=O)NC3(c4ccc(C(=O)O)cc4)CCOC3)n2C)c(Cl)c1Cl` (racemic) [I-104 e97], 0.001 to 1 µM; that for `CN1CC(COc2cc3c(cc(C(=O)NC4(c5ccc(C(=O)O)cc5)CCOC4)n3C)c(Cl)c2Cl)OC1=O` (racemic) [I-93 e106], 0.001 to 1 µM.
With `Cn1c(C(=O)NC2(c3ccc(C(C(=O)O)C4CCCC4)cc3)CCOC2)cc2c(Cl)c(Cl)ccc21` (racemic) [I-16 e87] the figure was 0.001 to 1 µM; with `Cn1c(C(=O)N[C@]2(c3ccc(CC(=O)O)cc3)CCOC2)cc2c(Cl)c(Cl)ccc21` (single isomer, unassigned) [I-109 or I-108 e150 peak 1], 0.001 to 1 µM.
Take `CC(C(=O)O)c1ccc(C2(NC(=O)c3cc4c(Cl)c(Cl)ccc4n3C)COC2)c(F)c1` (stereo not drawn) [I-70 e61]: the IC50 was 0.001 to 1 µM.
With `Cn1c(C(=O)NC2(c3ccc(C(=O)O)cc3F)CCOC2)cc2c(Cl)c(Cl)ccc21` (racemic) [I-118 e29] the figure was 0.001 to 1 µM; with `COc1cc2c(cc(C(=O)NC3(c4ccc(C(=O)O)cc4F)COC3)n2C)c(Cl)c1C` [I-50 e75], 0.001 to 1 µM.
The compound `CCN1CCC(NC(=O)c2cc3c(Cl)c(Cl)ccc3n2C)(c2ccc(C(=O)O)cc2)C1` (racemic) [I-126 e18] had an IC50 of 5 to 10 µM.
Compound `Cn1c(C(=O)NC2(c3ccc(Cc4nnn[nH]4)cc3)COC2)cc2c(Cl)c(Cl)ccc21` [I-41 e92] displayed an IC50 of 0.001 to 1 µM.
The result for `Cc1cc(CC(=O)O)ccc1C1(NC(=O)c2cc3c(Cl)c(Cl)ccc3n2C)COC1` [I-82 e51] reads 0.001 to 1 µM.
